Results from patent US6676950B2, “Neurokinin receptor antagonists and methods of use thereof for inhibiting HIV infection” (The Children's Hospital of Philadelphia, priority 2001, dated 2004).

Assays:
HIV Bal strain = experiment: HIV RT activity in culture supernatants of HIV Bal strain-infected MDM; type: cell-based, HIV-1; conditions: for HIV RT activity increased: MDM, HIV Bal
Protocol: The cells were also incubated with SP and/or anti-SP antibody. In this case, SP was incubated with (1:1000 dilution in 10% FCS DMEM) or without anti-SP antibody at room temperature for 10 min and then the mixture was added to the cell cultures for 2 h. When the cells were treated with the combination of CP-96,345 and SP, or CP-96,345, SP and anti-SP antibody, CP-96,345 was incubated with the cell culture for 10 min and then SP was added to the MDM or CP-96,345, SP and anti-SP (1:1000 in 10% FCS DMEM) were incubated for 10 min at room temperature and the mixture was incubated with the MDM for 2 h before infection with HIV. Untreated MDM served as controls. The cells were treated prior to, during, and throughout the infection.
HIV Infection: After 2 h incubation with or without the reagents described above, the cells were infected with equal amounts of cell-free HIV based on p24 antigen content (20 ng/10^6 cells) overnight, and then washed to remove unbound virus. Fresh media containing SP and/or CP-96,345 or anti-SP antibody were added to the MDM as described above. The culture media and the reagents were replaced twice weekly. The culture supernatants were harvested for HIV reverse transcriptase (RT) activity determinations. After HIV infection, the MDM were incubated for 8 to 12 days. At the termination of the experiments, cellular RNA was extracted for assessment of HIV gag gene expression using RT-PCR or real time RT-PCR assays.
The HIV RT activity assay was carried out based on the technique of Willey et al. (30) with modification (22).

CCR5 = experiment: Flow cytometry of CCR5 receptor expression on MDM; type: cell-based, human; conditions: incubated overnight (24 h); direct immunofluorescence
Protocol: The cells were removed from the culture plate and then resuspended in 100 μl of phosphate-buffered saline (PBS). After incubation with 20 μl of either anti-CCR5-FITC or anti-CXCR4-FITC or anti-CD4-FITC or anti-CD14-FITC for 45 min at 4° C., the cells were washed twice with PBS and fixed with 1% paraformaldehyde in PBS. Fluorescein-conjugated control antibodies were isotype-matched IgG. Fluorescence was analyzed on an EPICS-Elite flow cytometer (Beckman-Coulter Electronics, Hialeah, Fla.).

HIV LTR promoter = experiment: HIV LTR-driven CAT activity assay in U38 cells; type: cell-based
Source text: ACH-2 and U38 cell lines (25, 26) were obtained from the NIH AIDS Reagent Program. DNA extracted from ACH-2 cells was used as a positive standard for HIV DNA PCR as previously reported (27). The U38 cell line contains stably integrated, silent copies of the HIV LTR (long terminal repeat) promoter linked to a CAT (chloramphenicol acetyltransferase) gene and was used to study the effect of SP and/or CP-96,345 and R-113281 on the activation of HIV LTR promoter.
Chloramphenicol acetyltransferase (CAT) activity assay: U38 cells (2×10^6 cells) were incubated with different concentrations of SP and/or CP-96,345 or R-113281 for 48 h. Untreated U38 cells were used as a background control. Cellular proteins were extracted using 1X Reporter Lysis Bufffer (Promega Corp., Madison, Wis.). The lysates were incubated with a mixture containing 0.15 μCi of ^14C-labeled chloramphenicol (DuPont Inc., Boston, Mass.) and 200 μg/ml of n-Butyryl CoA (Promega Corp., Madison, Wis.) in a total volume of 125 μl at 37° C. for 3 h. The acetylated forms of chloramphenicol were extracted with xylene (Aldrich Chemical Company, Milwaukee, Wis.). CAT activity of each sample was quantified using a liquid-scintillation counter (Packard Instrument Company, Downers Grove, Ill.). The results were expressed as the ratio of CAT activity (CPM) of the SP and/or CP-96,345-treated or R-113281-treated U38 to that of the background control.

## COc1ccccc1CN[C@H]1C2CCN(CC2)[C@H]1C(c1ccccc1)c1ccccc1 [CP-96,344]
HIV Bal strain; 10^−7M, 8 days after infection, vs HIV infection control
  viral replication as determined by HIV RT activity: did not have the effect
CCR5
  CCR5 receptor expression on MDM (percentage positive cells): did not affect

## Substance P [SP]
HIV Bal strain; SP 10^−6M, 12 days after infection
  HIV RT activity increased: 58%
HIV Bal strain; SP 10^−8M, 12 days after infection
  HIV RT activity increased: 40%
HIV Bal strain; SP 10^−10M, 12 days after infection
  HIV RT activity increased: 14%
HIV Bal strain; SP alone 10^−6M, 12 days after infection
  HIV replication in MDM (HIV RT activity and HIV gag mRNA levels): enhanced HIV replication
HIV LTR promoter; SP 10^−10 to 10^−6M, 48 h, P<0.05 vs untreated control cells
  HIV LTR-driven CAT activity: significantly increased
HIV LTR promoter; SP (10^−5M), 48 hours
  HIV LTR-driven CAT activity: significantly increases
